For one assay, the target named is T1, c-kit mutant D816V (Homo sapiens, UniProt P10721, D816V/DEL694-753).
T1 construct: residues 551-934, kinase insertion domain residues 694-753 deleted; 6x-histidine (N); made in house; host or cells: E. coli Arctic Express (DE3) RIL (Stratagene)
In words: c-Kit mutant D816V biochemical assay, AlphaScreen. Particulars: c-kit D816V biochemical inhibitory activity; read-out: Biochemical activity (IC50 μM) Kit D816V. The method, boiled down:
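Purified His-tagged c-Kit D816V (E. coli-expressed) assayed in 25 mM HEPES pH 7.2 with Mg/Mn, 5% DMSO and 10 μM ATP, 30 min at room temperature, 8-point 1:3 dilutions. Phosphorylation detected by AlphaScreen with streptavidin donor and PY20 acceptor beads; IC50 from signal versus concentration.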
In general terms: In Alpha technology, singlet oxygen from a donor bead excites a nearby acceptor bead.

The target of another assay is T2, c-kit kinase (Homo sapiens, UniProt P10721).
T2 construct: The c-kit (or kinase domain thereof) is an active kinase in AlphaScreen; poly-Histidine tag (in-house protein only) (cleaved yes); host or cells: E. coli BL21(DE3)RIL, co-expressed with PTP1B
T2 sequence (P10721 26-976): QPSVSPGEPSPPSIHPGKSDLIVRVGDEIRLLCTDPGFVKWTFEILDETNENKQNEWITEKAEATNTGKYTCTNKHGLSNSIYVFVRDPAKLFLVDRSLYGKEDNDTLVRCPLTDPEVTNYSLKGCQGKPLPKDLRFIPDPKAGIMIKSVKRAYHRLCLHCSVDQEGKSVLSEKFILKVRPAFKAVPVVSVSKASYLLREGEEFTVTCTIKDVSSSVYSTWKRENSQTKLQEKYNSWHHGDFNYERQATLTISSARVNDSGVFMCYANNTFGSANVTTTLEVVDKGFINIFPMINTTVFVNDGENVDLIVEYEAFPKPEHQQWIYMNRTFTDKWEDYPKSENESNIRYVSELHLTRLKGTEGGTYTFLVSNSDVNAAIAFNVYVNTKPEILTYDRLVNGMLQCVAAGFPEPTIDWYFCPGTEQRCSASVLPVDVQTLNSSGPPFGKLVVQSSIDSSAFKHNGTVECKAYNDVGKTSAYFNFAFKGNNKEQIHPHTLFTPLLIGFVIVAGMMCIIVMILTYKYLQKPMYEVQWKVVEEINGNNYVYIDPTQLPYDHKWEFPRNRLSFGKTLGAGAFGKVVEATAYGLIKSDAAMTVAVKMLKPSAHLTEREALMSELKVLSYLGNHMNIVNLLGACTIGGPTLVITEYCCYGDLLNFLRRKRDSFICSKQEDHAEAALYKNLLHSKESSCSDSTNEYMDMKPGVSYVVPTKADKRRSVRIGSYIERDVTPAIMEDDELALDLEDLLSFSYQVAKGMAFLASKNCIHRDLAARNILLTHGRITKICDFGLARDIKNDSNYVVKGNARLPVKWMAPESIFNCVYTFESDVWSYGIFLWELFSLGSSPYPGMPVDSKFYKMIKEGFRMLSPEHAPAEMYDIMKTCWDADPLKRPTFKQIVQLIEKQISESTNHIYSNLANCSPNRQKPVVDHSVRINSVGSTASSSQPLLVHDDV
Nature of the assay: c-Kit biochemical assay, AlphaScreen, 10 μM ATP. Conditions: c-kit biochemical inhibitory activity; read-out: Biochemical activity (IC50 μM) Kit. The method in brief:
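His-tagged c-Kit expressed in E. coli with co-expressed PTP1B (dephosphorylated), tag removed; 0.1 ng per reaction with biotinylated-peptide substrate in 50 mM HEPES pH 7.2, 5 mM MgCl2, 5 mM MnCl2, 5% DMSO, 10 μM ATP, 1 h at room temperature. Phosphorylation detected by AlphaScreen (streptavidin donor, PY20 acceptor beads); IC50 from 8-point 1:3 dilution series.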

Assay [1] relates to cells with activating c-kit mutations in the catalytic region. Conditions: Ma et al., 2002; cited from earlier work.
The target of another assay is D816V KIT mutation (Homo sapiens, UniProt P10721, D816V). Particulars: Frost et al., 2002; cited from earlier work.
Chain of D816V KIT mutation (P10721 26-976 D816V): as the sequence (P10721 26-976) above, with D791V counted along it

T1 sequence (P10721 with tags, fused parts or gaps DEL694-753/D816V): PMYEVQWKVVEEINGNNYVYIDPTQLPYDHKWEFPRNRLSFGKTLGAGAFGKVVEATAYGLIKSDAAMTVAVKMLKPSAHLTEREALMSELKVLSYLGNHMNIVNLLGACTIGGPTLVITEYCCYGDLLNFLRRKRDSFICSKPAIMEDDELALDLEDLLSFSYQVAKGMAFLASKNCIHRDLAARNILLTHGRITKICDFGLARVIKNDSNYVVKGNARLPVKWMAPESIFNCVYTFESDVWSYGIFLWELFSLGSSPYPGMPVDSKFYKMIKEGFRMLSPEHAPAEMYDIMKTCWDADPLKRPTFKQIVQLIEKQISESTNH

Regarding `COc1cc(-c2cc3c(N4CCN(C(=O)N[C@@H](C)c5ccc(Cl)cc5)C(C)(C)C4)ncnc3[nH]2)ccn1` [P-0710, N-[(1S)-1-(4-chlorophenyl)ethyl]-4-[6-(2-methoxy-4-pyridyl)-7H-pyrrolo[2,3-d]pyrimidin-4-yl]-2,2-dimethyl-piperazine-1-carboxamide], the concentration for half-maximal inhibition (IC50) (in general, the concentration needed to halve the response being measured) lay within 0.0001 to 1 µM on c-kit mutant D816V and 10 to 200 µM at c-kit kinase. On to `Cc1ccc([C@H](C)NC(=O)N2CCN(c3ncnc4[nH]c(-c5ccc(F)cc5)cc34)C[C@H]2C)cc1` [P-0712, (2R)-4-[6-(4-fluorophenyl)-7H-pyrrolo[2,3-d]pyrimidin-4-yl]-2-methyl-N-[(1S)-1-(p-tolyl)ethyl]piperazine-1-carboxamide], for which the half-maximal inhibitory concentration (IC50) on c-kit mutant D816V was in the range of 0.0001 to 1 µM; on c-kit kinase, 10 to 200 µM. As to `CCOc1cccc(-c2[nH]c(C3CCN(c4ncnc5[nH]c(-c6ccnc(OC)c6)cc45)CC3)nc2C)c1` [P-0714, 4-[4-[5-(3-ethoxyphenyl)-4-methyl-1H-imidazol-2-yl]-1-piperidyl]-6-(2-methoxy-4-pyridyl)-7H-pyrrolo[2,3-d]pyrimidine], the IC50 on c-kit mutant D816V was 0.0001 to 1 µM; on c-kit kinase, 10 to 200 µM. On to `Cc1nn(C)cc1-c1cc2c(N3CCN(C(=O)N[C@@H](C)c4ccc(F)cc4)[C@H](C)C3)ncnc2[nH]1` [P-0715, (2R)-4-[6-(1,3-dimethylpyrazol-4-yl)-7H-pyrrolo[2,3-d]pyrimidin-4-yl]-N-[(1S)-1-(4-fluorophenyl)ethyl]-2-methyl-piperazine-1-carboxamide], for which the values for the concentration for half-maximal inhibition (IC50) on c-kit mutant D816V and at c-kit kinase were 0.0001 to 1 µM and 1 to 10 µM, respectively. For `Cc1nn(C)cc1-c1cc2c(N3CCN(C(=O)N[C@@H](C)c4ccc(Cl)cc4)CC3)ncnc2[nH]1` [P-0716, N-[(1S)-1-(4-chlorophenyl)ethyl]-4-[6-(1,3-dimethylpyrazol-4-yl)-7H-pyrrolo[2,3-d]pyrimidin-4-yl]piperazine-1-carboxamide], in that order: 0.0001 to 1 µM and 10 to 200 µM. In the case of `C[C@H](NC(=O)N1CCN(c2ncnc3[nH]c(-c4cnn(C)c4)cc23)C[C@H]1C)c1ccc(Cl)cc1` [P-0717, (2R)-N-[(1S)-1-(4-chlorophenyl)ethyl]-2-methyl-4-[6-(1-methylpyrazol-4-yl)-7H-pyrrolo[2,3-d]pyrimidin-4-yl]piperazine-1-carboxamide], the IC50 on c-kit mutant D816V lay in the range of 0.0001 to 1 µM; at c-kit kinase, 1 to 10 µM. For `Cc1nn(C)cc1-c1cc2c(N3CCN(C(=O)N[C@@H](C)c4ccc(Cl)cc4)[C@H](C)C3)ncnc2[nH]1` [P-0718, (2R)-N-[(1S)-1-(4-chlorophenyl)ethyl]-4-[6-(1,3-dimethylpyrazol-4-yl)-7H-pyrrolo[2,3-d]pyrimidin-4-yl]-2-methyl-piperazine-1-carboxamide], the IC50 on c-kit mutant D816V and on c-kit kinase was 0.0001 to 1 µM in each case. Regarding `Cc1ccc([C@H](C)NC(=O)N2CCN(c3ncnc4[nH]c(-c5ccc(F)cc5)cc34)CC2(C)C)cc1` [P-0719, 4-[6-(4-fluorophenyl)-7H-pyrrolo[2,3-d]pyrimidin-4-yl]-2,2-dimethyl-N-[(1S)-1-(p-tolyl)ethyl]piperazine-1-carboxamide], the IC50 at c-kit mutant D816V and at c-kit kinase was 0.0001 to 1 µM throughout. Consider `C[C@H](NC(=O)N1CCN(c2ncnc3[nH]c(-c4cnn(C)c4)cc23)CC1(C)C)c1ccc(F)cc1` [P-0720, N-[(1S)-1-(4-fluorophenyl)ethyl]-2,2-dimethyl-4-[6-(1-methylpyrazol-4-yl)-7H-pyrrolo[2,3-d]pyrimidin-4-yl]piperazine-1-carboxamide], for which the 50% inhibitory concentration (IC50) at c-kit mutant D816V and at c-kit kinase was 0.0001 to 1 µM throughout. Regarding `Cc1nn(C)cc1-c1cc2c(N3CCN(C(=O)N[C@@H](C)c4ccc(F)cc4)C(C)(C)C3)ncnc2[nH]1` [P-0721, 4-[6-(1,3-dimethylpyrazol-4-yl)-7H-pyrrolo[2,3-d]pyrimidin-4-yl]-N-[(1S)-1-(4-fluorophenyl)ethyl]-2,2-dimethyl-piperazine-1-carboxamide], the half-inhibitory concentration (IC50) at c-kit mutant D816V and at c-kit kinase was 0.0001 to 1 µM in each case. Take `C[C@H](NC(=O)N1CCN(c2ncnc3[nH]c(-c4cnn(C)c4)cc23)CC1(C)C)c1ccc(Cl)cc1` [P-0722, N-[(1S)-1-(4-chlorophenyl)ethyl]-2,2-dimethyl-4-[6-(1-methylpyrazol-4-yl)-7H-pyrrolo[2,3-d]pyrimidin-4-yl]piperazine-1-carboxamide]: the IC50 at c-kit mutant D816V and on c-kit kinase was 0.0001 to 1 µM in each case.

As to `Cc1nn(C)cc1-c1cc2c(N3CCN(C(=O)N[C@@H](C)c4ccc(Cl)cc4)C(C)(C)C3)ncnc2[nH]1` [P-0723, N-[(1S)-1-(4-chlorophenyl)ethyl]-4-[6-(1,3-dimethylpyrazol-4-yl)-7H-pyrrolo[2,3-d]pyrimidin-4-yl]-2,2-dimethyl-piperazine-1-carboxamide], the IC50 at c-kit mutant D816V and at c-kit kinase was 0.0001 to 1 µM in each case. As to `Cc1nn(C)cc1-c1cc2c(N3CCN(C(=O)N[C@@H](C)c4ccc(F)cc4)CC3)ncnc2[nH]1` [P-0724, 4-[6-(1,3-dimethylpyrazol-4-yl)-7H-pyrrolo[2,3-d]pyrimidin-4-yl]-N-[(1S)-1-(4-fluorophenyl)ethyl]piperazine-1-carboxamide], the IC50 on c-kit mutant D816V and at c-kit kinase was 0.0001 to 1 µM throughout. Turning to `C[C@H](NC(=O)N1CCN(c2ncnc3[nH]c(-c4cnn(C)c4)cc23)C[C@H]1C)c1ccc(F)cc1` [P-0725, (2R)-N-[(1S)-1-(4-fluorophenyl)ethyl]-2-methyl-4-[6-(1-methylpyrazol-4-yl)-7H-pyrrolo[2,3-d]pyrimidin-4-yl]piperazine-1-carboxamide], the IC50 on c-kit mutant D816V and on c-kit kinase was 0.0001 to 1 µM in each case. For the molecule `CCc1ccc(S(=O)(=O)NC2CCN(c3ncnc4[nH]c(-c5cn(C)nc5C)cc34)CC2)cc1` [P-0726, N-[1-[6-(1,3-dimethylpyrazol-4-yl)-7H-pyrrolo[2,3-d]pyrimidin-4-yl]-4-piperidyl]-4-ethyl-benzenesulfonamide], the IC50 at c-kit mutant D816V and at c-kit kinase was 0.0001 to 1 µM in each case. In the case of `CCc1ccc(S(=O)(=O)NC2CCN(c3ncnc4[nH]c(-c5ccnc(OC)c5)cc34)CC2)cc1` [P-0727, 4-ethyl-N-[1-[6-(2-methoxy-4-pyridyl)-7H-pyrrolo[2,3-d]pyrimidin-4-yl]-4-piperidyl]benzenesulfonamide], the IC50 at c-kit mutant D816V and on c-kit kinase was 0.0001 to 1 µM each time. Take `Cc1cc2c(N3CCC(NS(=O)(=O)c4ccc(Cl)cc4)CC3)ncnc2[nH]1` [P-0728, 4-chloro-N-[1-(6-methyl-7H-pyrrolo[2,3-d]pyrimidin-4-yl)-4-piperidyl]benzenesulfonamide]: the IC50 on c-kit mutant D816V and on c-kit kinase was 0.0001 to 1 µM throughout.

As for `Cc1cc2c(C3=CCC(NS(=O)(=O)c4ccc(Cl)cc4)CC3)ncnc2[nH]1` (stereo not shown) [P-0729, 4-chloro-N-[4-(6-methyl-7H-pyrrolo[2,3-d]pyrimidin-4-yl)cyclohex-3-en-1-yl]benzenesulfonamide], the 50% inhibitory concentration (IC50) on c-kit mutant D816V and at c-kit kinase was 0.0001 to 1 µM throughout. As to `CCc1ccc(S(=O)(=O)NC2CCN(c3ncnc4[nH]c(C)cc34)CC2)s1` [P-0730, 5-ethyl-N-[1-(6-methyl-7H-pyrrolo[2,3-d]pyrimidin-4-yl)-4-piperidyl]thiophene-2-sulfonamide], the IC50 on c-kit mutant D816V and on c-kit kinase was 0.0001 to 1 µM in each case. Take `Cc1ccc(NC(=O)c2ccc(CN3CCN(C)CC3)cc2)cc1Nc1nccc(-c2cccnc2)n1` [STI571]: in assay [1], the “inhibition of cells with c-kit mutations in the catalytic region” value was “did not inhibit”. With `Cc1ccc(NC(=O)c2ccc(CN3CCN(C)CC3)cc2)cc1Nc1nccc(-c2cccnc2)n1` [imatinib], the “sensitivity of D816V KIT mutation” value on D816V KIT mutation is “resistant”.

The values above are taken from patent US10227357B2, “Compounds and methods for kinase modulation, and indications therefor” (Plexxikon Inc., priority 2012, dated 2019).
